Columns and labels:
σ-receptor = assay: Binding activity for σ-receptor, [3H]DTG displacement in rat brain membrane preparation; parameters: species or system Sprague-Dowley rat; conditions: for Ki: rat whole brain (except cerebella) membrane, [3H]DTG 3 nM, 25°C 60 minutes, compounds tested as hydrochloride, read-out: Sigma [^3H] DTG Ki
[1] = test system: apomorphine induced climbing; assay: Suppressive activity on apomorphine induced climbing in mice; type: in vivo; conditions: 30 minutes before apomorphine 2 mg/kg s.c., ICR mice; for Suppression rate (mg/kg, p.o): apomorphine single administered group = 100 %
Protocol: Administering dopamine agonist, apomorphine in mouse resulted various abnormal movings, and especially, a climbing the cage has been known to be correlated with human schizophrenia.
Compounds of the present invention were administered orally or intraperitoneally in ICR mice, male (Charles River Corp.), and after 30 minutes apomorphine 2 mg/kg was administered subcutaneously. Climbing behaviors of 3 minutes after 20-23 minutes of apomorphine administration were observed. Climbing behavior was observed by entering the mice in stainless steel made wire netting cage and measuring a time remaining above the upper part of half part of the cage at observing. A climbing time of apomorphine single administered group is set as 100 % and shortened time by administering the drug is shown in suppression rate.

## CC1(C)C2CC[C@]1(C)CN(CCC1CCCCCC1)C2 [Example 7, (1S)-3-(2-cycloheptylethyl)-1,8,8-trimethyl-3-azabicyclo[3.2.1] octane]
σ-receptor
  Ki: 0.57 nM

## CC1(C)C2CC[C@@]1(C)CN(CCc1cccc3ccccc13)C2 [Example 45, (1R)-3-[2-(1-naphthyl)ethyl]-1,8,8-trimethyl-3-azabicyclo [3.2.1] octane]
σ-receptor
  Ki: 2.22 nM

## CC1(C)C2CC[C@]1(C)CN(CCC1C3CC4CC(C3)CC1C4)C2 (stereo partly drawn) [Example 15, (1S)-3-[2-(2-adamantyl)ethyl]-1,8,8-trimethyl-3-azabicyclo[3.2.1] octane]
σ-receptor
  Ki: 0.32 nM
[1]; 10 mg/kg p.o.
  Suppression rate (mg/kg, p.o): 78 % (10)

## CN(C)CCCN1c2ccccc2Sc2ccc(Cl)cc21 [Chlorpromazine, reference compound]
[1]; 1 mg/kg i.p.
  Suppression (mg/kg, i.p.): 40 % (1)

## CC1(C)C2CC[C@]1(C)CN(CCC1CCCC1)C2 [Example 3, (1S)-3-(2-cyclopentylethyl)-1,8,8-trimethyl-3-azabicyclo[3.2.1] octane]
σ-receptor
  Ki: 0.53 nM

## Cc1ccccc1NC(=N)Nc1ccccc1C [DTG, 1,3-di(2-tolyl) guanidine, reference compound]
σ-receptor; radioligand constant used to calculate Ki, read-out: Kd, affinity of radioactive ligand for receptor
  Kd: 10.6 nM

## CC12CC3CC(C1)CC(CCN1CC4CC[C@](C)(C1)C4(C)C)(C3)C2 [Example 19, (1S)-3-[2-(3-methyl-1-adamantyl)ethyl]-1,8,8-trimethyl-3-azabicyclo [3.2.1] octane]
σ-receptor
  Ki: 0.87 nM

## CC1(C)C2CC[C@@]1(C)CN(CCC13CC4CC(CC(C4)C1)C3)C2 [Example 14, (1R)-3-[2-(1-adamantyl)ethyl]-1,8,8-trimethyl-3-azabicyclo[3.2.1] octane]
σ-receptor
  Ki: 0.32 nM

## CC1(C)C2CC[C@@]1(C)CN(CCC1CCCCC1)C2 [Example 6, (1R)-3-(2-cyclohexylethyl)-1,8,8-trimethyl-3-azabicyclo[3.2.1] octane]
σ-receptor
  Ki: 0.16 nM

## CC1(C)C2CC[C@]1(C)CN(CCC13CC4CC(CC(C4)C1)C3)C2 [Example 1, (1S)-3-[2-(1-adamantyl)ethyl]-1,8,8-trimethyl-3-azabicyclo [3.2.1] octane]
σ-receptor
  Ki: 0.26 nM
[1]; 30 mg/kg p.o.
  Suppression rate (mg/kg, p.o): 37 % (30)

## CC1(C)[C@@H]2CC[C@@]1(C)CN(CCc1ccncc1)C2 [Example 48, (1R)-3-[2-(4-pyridyl) ] ethyl-1,8,8-trimethyl-3-azabicyclo [3.2.1] octane]
σ-receptor
  Ki: 15.1 nM

## CC1(C)C2CC[C@@]1(C)CN(CCC1C3CC4CC(C3)CC1C4)C2 (stereo partly drawn) [Example 16, (1R)-3-[2-(2-adamantyl)ethyl]-1,8,8-trimethyl-3-azabicyclo [3.2.1] octane]
σ-receptor
  Ki: 0.41 nM
[1]; 30 mg/kg p.o.
  Suppression rate (mg/kg, p.o): 79 % (30)

## CC1(C)[C@H]2CC[C@]1(C)CN(CC13CC4CC(CC1C4)C3)C2 [Example 20, (1S)-3-(3-noradamantylmethyl)-1,8,8-trimethyl-3-azabicyclo[3.2.1] octane]
σ-receptor
  Ki: 4.16 nM

## CC1(C)C2CC[C@]1(C)CN(CCC1C3CC4CC1CC(Cl)(C4)C3)C2 (stereo partly drawn) [Example 25, (1S)-3-[2-(5-chloro-2-adamantyl)ethyl]-1,8,8-trimethyl-3-azabicyclo [3.2.1] octane]
σ-receptor
  Ki: 0.58 nM
[1]; 30 mg/kg p.o.
  Suppression rate (mg/kg, p.o): 43 % (30)

## CC1(C)[C@H]2CC[C@]1(C)CN(CCc1cccc3ccccc13)C2 [Example 49, (1S)-3-[2-(1-naphtyl)ethyl]-1,8,8-trimethyl-3-azabicyclo-[3.2.1] octane]
σ-receptor
  Ki: 9 nM

## CC1(C)C2CC[C@]1(C)CN(CCC1C3CC4CC1CC(O)(C4)C3)C2 (stereo partly drawn) [Example 23, (1S)-3-[2-(5-hydroxy-2-adamantyl)ethyl]-1,8,8-trimethyl-3-azabicyclo [3.2.1] octane]
σ-receptor
  Ki: 0.44 nM
[1]; 10 mg/kg p.o.
  Suppression rate (mg/kg, p.o): 69 % (10)

## CC1(C)C2CC[C@]1(C)CN(CCc1ccc3ccccc3c1)C2 [Example 50, (1S)-3-[2-(2-naphthyl)ethyl]-1,8,8-trimethyl-3-azabicyclo [3.2.1] octane]
σ-receptor
  Ki: 28.3 nM
[1]; 1 mg/kg i.p.
  Suppression (mg/kg, i.p.): 50 % (1)

## CC1(C)C2CC[C@]1(C)CN(CCC1C3CCCC1CCC3)C2 (stereo partly drawn) [Example 21, (1S)-3-[2-(bicyclo [3.3.1]nonan-9-yl)-1-ethyl]-1,8,8-trimethyl-3-azabicyclo [3.2.1] octane]
σ-receptor
  Ki: 0.88 nM
[1]; 30 mg/kg p.o.
  Suppression rate (mg/kg, p.o): 54 % (30)

## COC12CC3CC(C1)C(CCN1CC4CC[C@](C)(C1)C4(C)C)C(C3)C2 (stereo partly drawn) [Example 24, (1S)-3-[2-(5-methoxy-2-adamantyl)ethyl]-1,8,8-trimethyl-3-azabicyclo [3.2.1] octane]
σ-receptor
  Ki: 0.67 nM
[1]; 10 mg/kg p.o.
  Suppression rate (mg/kg, p.o): 78 % (10)

## CC1(C)C2CC[C@@]1(C)CN(CCc1ccccn1)C2 [Example 47, (1R)-3-[2-(2-pyridyl)ethyl]-1,8,8-trimethyl-3-azabicyclo [3.2.1] octane]
σ-receptor
  Ki: 16.1 nM

## CC1(C)C2CC[C@]1(C)CN(CCC1CCCCCCC1)C2 [Example 8, (1S)-3-(2-cyclooctylethyl)-1,8,8-trimethyl-3-azabicyclo[3,2,1] octane]
σ-receptor
  Ki: 0.5 nM

## CC1(C)C2CC[C@]1(C)CN(CCC1C3CC4CC(C3)C(O)C1C4)C2 (stereo partly drawn) [Example 27, (1S)-3-[2-(4-hydroxy-2-adamantyl)ethyl]-1,8,8-trimethyl-3-azabicyclo [3.2.1] octane]
σ-receptor
  Ki: 1.6 nM

## CC1(C)C2CC[C@]1(C)CN(CCCC1CCCCC1)C2 [Example 10, (1S)-3-(3-cyclohexylpropyl)-1,8,8-trimethyl-3-azabicyclo[3.2.1] octane]
σ-receptor
  Ki: 0.92 nM

## CC1(C)C2CC[C@]1(C)CN(CCc1ccccn1)C2 [Example 51, (1S)-3-[2-(2-pyridyl)ethyl]-1,8,8-trimethyl-3-azabicyclo [3.2.1] octane]
σ-receptor
  Ki: 31.8 nM

## CC1(C)C2CC[C@@]1(C)CN(CC1CCCCC1)C2 [Example 12, (1R)-3-cyclohexylmethyl-1,8,8-trimethyl-3-azabicyclo[3.2.1] octane]
σ-receptor
  Ki: 2.53 nM

## CC1CCC(CCN2CC3CC[C@](C)(C2)C3(C)C)CC1 (stereo partly drawn) [Example 18, (1S)-3-[2-(4-methylcyclohexyl)ethyl]-1,8,8-trimethyl-3-azabicyclo [3.2.1] octane]
σ-receptor
  Ki: 2.23 nM

## CC1(C)C2CC[C@@]1(C)CN(CCc1ccc3ccccc3c1)C2 [Example 46, (1R)-3-[2-(2-naphthyl)ethyl]-1,8,8-trimethyl-3-azabicyclo [3.2.1] octane]
σ-receptor
  Ki: 8.57 nM
[1]; 10 mg/kg i.p.
  Suppression (mg/kg, i.p.): 45 % (10)

## CC1(C)C2CC[C@]1(C)CN(CC1CCCCC1)C2 [Example 11, (1S)-3-cyclohexylmethyl-1,8,8-trimethyl-3-azabicyclo[3.2.1] octane]
σ-receptor
  Ki: 3.63 nM

## CC1(C)C2CC[C@]1(C)CN(CCCCC1CCCCC1)C2 [Example 9, (1S)-3-(4-cyclohexyl-1-butyl)-1,8,8-trimethyl-3-azabicyclo[3.2.1] octane]
σ-receptor
  Ki: 3.72 nM

## (1S)-3-[2-(1-norbornyl)ethyl]-1,8,8-trimethyl-3-azabicyclo [3,2,1] octane [Example 2]
σ-receptor
  Ki: 0.39 nM

## CC1(C)C2CC[C@]1(C)CN(CCC1CCCCC1)C2 [Example 4, (1S)-3-(2-cyclohexylethyl)-1,8,8-trimethyl-3-azabicyclo[3.2.1] octane]
σ-receptor
  Ki: 0.28 nM

## CC1(C)C2CC[C@]1(C)CN(CCc1ccncc1)C2 [Example 53, (1S)-3-[2-(4-pyridyl)ethyl]-1,8,8-trimethyl-3-azabicyclo [3.2.1] octane]
σ-receptor
  Ki: 21.5 nM

## CC1(C)C2CC[C@]1(C)CN(C1CCCCC1)C2 [Example 13, (1S)-3-cyclohexyl-1,8,8-trimethyl-3-azabicyclo[3.2.1] octane]
σ-receptor
  Ki: 6.37 nM

## CC1(C)C2CC[C@]1(C)CN(CCc1cccnc1)C2 [Example 52, (1S)-3-[2-(3-pyridyl)ethyl]-1,8,8-trimethyl-3-azabicyclo [3.2.1] octane]
σ-receptor
  Ki: 79.5 nM

## CC1(C)C2CC[C@]1(C)CN(CCC1C3CC4CC(C3)C(c3ccccc3)C1C4)C2 (stereo partly drawn) [Example 28, (1S)-3-[2-(4-phenyl-2-adamantyl)ethyl]-1,8,8-trimethyl-3-azabicyclo [3.2.1] octane]
[1]; 30 mg/kg p.o.
  Suppression rate (mg/kg, p.o): 74 % (30)

## CC1(C)C2CC[C@]1(C)CN(CCc1cccs1)C2 [Example 55, (1S)-3-[2-(2-thienyl)ethyl]-1,8,8-trimethyl-3-azabicyclo [3.2.1] octane]
σ-receptor
  Ki: 7.04 nM

Source: EP0661271B1, “AZEPINE DERIVATIVES, PRODUCTION THEREOF, AND USE THEREOF AS SIGMA-RECEPTOR LIGANDS” (Asahi Kasei Kogyo Kabushiki Kaisha, priority 1992, dated 1994)
